Counter-ions that a name gives are not always drawn. Like-named read-outs stand apart in the source and are kept apart here.
Legend:
Format in all cases: physicochemical
[1] = Gravimetric vapour sorption (GVS); conditions: for Stability to humidity GVS uptake: 25° C.; for XRPD pattern following the adsorption/desorption analysis: after GVS
Method: The Gravimetric sorption isotherms were obtained using a Hiden IGASorp moisture sorption analyser, controlled by CFRSorp software. The sample temperature was maintained at 25° C. by a Huber re-circulating water bath. The humidity was controlled by mixing streams of dry and wet nitrogen, with a total flow rate of 250 ml/min. The relative humidity (RH) was measured by a calibrated Vaisala RH probe (dynamic range of 0-95% RH), located near the sample. The weight change, (mass relaxation) of the sample as a function of % RH was constantly monitored by the microbalance (accuracy 0.001 mg). Typically 10-20 mg of sample was placed in a tared mesh stainless steel basket at room temperature. The sample was loaded and unloaded at 40% RH and 25° C. (typical room conditions). The standard isotherm was performed at 25° C. at 10% RH intervals over a 0-90% RH range.

[2] = Thermodynamic aqueous solubility; conditions: for solubility at 24 h: water, 25 °C, thermodynamic from solid
Method: The suspension was equilibrated at 25° C. for 24 hours then the pH was measured. The suspension was then filtered through a glass fibre C filter. […] Different volumes of the standard, diluted and undiluted sample solutions were injected.

[3] = Stability to humidity on storage (form by XRPD)
[4] = Phase equilibration between Form I, II and IV of Formula I (Example 12); conditions: slurried 13 days
Method: About 10 mg of the mixture was then slurried in 200 μl of pre-saturated solvent at the desired temperatures for 13 days. The solids were then quickly filtered and analyzed by XRPD.

[5] = Form conversion on heating (VT-XRPD)
Text: It is not clear whether a form change accompanies this loss of water, as the water is readily taken back up when the sample is returned to ambient RH.

[6] = Phase equilibration between Form I and IV of Formula I (Example 13)
Method: The suspensions of Form and IV from the equilibration studies were taken to 25° C.

[7] = relative humidity from about 0% to about 90%
[8] = relative humidity from about 0% to about 95%, di(4-methylbenzenesulfonate)

COc1cc2c(cc1OC)[C@H]1C[C@@H](OC(=O)[C@@H](N)C(C)C)[C@H](CC(C)C)CN1CC2 [Form I of Formula II, (S)-(2R,3R,11bR)-3-isobutyl-9,10-dimethoxy-2,3,4,6,7,11b-hexahydro-1H-pyrido[2,1-a]isoquinolin-2-yl 2-amino-3-methylbutanoate dihydrochloride]
Stability to humidity GVS uptake [1]: 15.2% | XRPD pattern following the adsorption/desorption analysis ([1]; dihydrochloride): substantially changed | GVS mass increase [1, 7]: about 14% | solubility at 24 h ([2]; pH 4.1, water, at pH 4.1, read-out: Aqueous solubility): > 90 mg/mL | solubility at 24 h ([2]; 25° C., 24 hours, at the pH of the next column, read-out: Aqueous solubility mg/mL free form): > 90 mg/mL | Form after storage ([3]; 25° C./92% RH for seven days): change of form | Form after storage ([3]; 40° C./75% RH for seven days): change of form

COc1cc2c(cc1OC)C1CC(OC(=O)C(N)C(C)C)C(CC(C)C)CN1CC2.Cc1ccc(S(=O)(=O)O)cc1.Cc1ccc(S(=O)(=O)O)cc1 (stereo not drawn) [Form I, II, and IV]
Form found by XRPD after equilibration ([4]; Acetonitrile/2% water, 25° C.): Form I | Form found by XRPD after equilibration ([4]; Acetonitrile/2% water, 50° C.): Form I | Form found by XRPD after equilibration ([4]; Acetonitrile/5% water, 5° C.): Form IV | Form found by XRPD after equilibration ([4]; Acetonitrile/5% water, 25° C.): Form I | Form found by XRPD after equilibration ([4]; Acetonitrile/5% water, 50° C.): Form I | Form found by XRPD after equilibration ([4]; Acetonitrile/10% water, 5° C.): Form IV | Form found by XRPD after equilibration ([4]; Acetonitrile/10% water, 25° C.): Form I | Form found by XRPD after equilibration ([4]; Acetonitrile/10% water, 50° C.): Form I | Form found by XRPD after equilibration ([4]; Acetonitrile, 5° C.): Form I | Form found by XRPD after equilibration ([4]; Acetonitrile, 25° C.): Form I | Form found by XRPD after equilibration ([4]; Acetonitrile, 50° C.): Form I

COc1cc2c(cc1OC)[C@H]1C[C@@H](OC(=O)[C@@H](N)C(C)C)[C@H](CC(C)C)CN1CC2 [Form II of Formula II, (S)-(2R,3R,11bR)-3-isobutyl-9,10-dimethoxy-2,3,4,6,7,11b-hexahydro-1H-pyrido[2,1-a]isoquinolin-2-yl 2-amino-3-methylbutanoate dihydrochloride]
Form conversion on heating (VT-XRPD) ([5]; heating): no conversion to Form I on heating | Temperature at which the material becomes amorphous (VT-XRPD) ([5]; no subsequent crystallization upon cooling): above 160 °C | GVS mass loss ([1]; RH lowered to 0%): ca. 12% | Aqueous solubility ([2]; at pH 4.1, dihydrochloride): > 67 mg/mL free form equivalent

COc1cc2c(cc1OC)[C@H]1C[C@@H](OC(=O)[C@@H](N)C(C)C)[C@H](CC(C)C)CN1CC2.Cc1ccc(S(=O)(=O)O)cc1.Cc1ccc(S(=O)(=O)O)cc1 [Form II, (S)-(2R,3R,11bR)-3-isobutyl-9,10-dimethoxy-2,3,4,6,7,11b-hexahydro-1H-pyrido[2,1-a]isoquinolin-2-yl 2-amino-3-methylbutanoate di(4-methylbenzenesulfonate)]
Hygroscopicity ([1]; GVS): substantially non-hygroscopic | Stability with respect to humidity ([1]; GVS): stable with respect to humidity | XRPD pattern following the adsorption/desorption analysis ([1]; di(4-methylbenzenesulfonate)): substantially unchanged | GVS mass increase [1, 8]: about 0.5% | solubility at 24 h ([2]; pH 5.1, water, at pH 5.1, read-out: aqueous solubility): ~18.5 mg/mL

COc1cc2c(cc1OC)[C@H]1C[C@@H](OC(=O)[C@@H](N)C(C)C)[C@H](CC(C)C)CN1CC2.Cc1ccc(S(=O)(=O)O)cc1.Cc1ccc(S(=O)(=O)O)cc1 [Form IV, (S)-(2R,3R,11bR)-3-isobutyl-9,10-dimethoxy-2,3,4,6,7,11b-hexahydro-1H-pyrido[2,1-a]isoquinolin-2-yl 2-amino-3-methylbutanoate di(4-methylbenzenesulfonate)]
Form conversion upon heating ([5]; heating at about 230° C.): converts to Form I | Stability with respect to humidity ([1]; GVS): stable with respect to humidity | XRPD pattern following the adsorption/desorption analysis ([1]; di(4-methylbenzenesulfonate)): substantially unchanged | GVS mass lost ([1]; relative humidity decreased between about 40 and 0% RH): 1.8% | GVS mass increase [1, 8]: about 3.4% | GVS mass increase ([1]; relative humidity from about 40% to about 95%): about 1.6% | Form conversion in suspension ([6]; 25° C., overnight stirring): did not convert | Form conversion in suspension ([6]; heated to 30° C. for 2 days): conversion to Form I was then complete | Form conversion upon re-slurry ([6]; re-slurry at room temperature in acetonitrile): converts to Form I

COc1cc2c(cc1OC)[C@H]1C[C@@H](OC(=O)[C@@H](N)C(C)C)[C@H](CC(C)C)CN1CC2.Cc1ccc(S(=O)(=O)O)cc1.Cc1ccc(S(=O)(=O)O)cc1 [Form V, (S)-(2R,3R,11bR)-3-isobutyl-9,10-dimethoxy-2,3,4,6,7,11b-hexahydro-1H-pyrido[2,1-a]isoquinolin-2-yl 2-amino-3-methylbutanoate di(4-methylbenzenesulfonate)]
Form conversion upon heating ([5]; heating between about 110° C. and about 140° C.): converts to Form VI | XRPD pattern following the adsorption/desorption analysis ([1]; di(4-methylbenzenesulfonate)): substantially unchanged | GVS mass lost ([1]; relative humidity decreased between about 20 and 0% RH): 1.2% | GVS mass increase ([1]; relative humidity from about 10% to about 95%): about 1%

COc1cc2c(cc1OC)[C@H]1C[C@@H](OC(=O)[C@@H](N)C(C)C)[C@H](CC(C)C)CN1CC2.Cc1ccc(S(=O)(=O)O)cc1.Cc1ccc(S(=O)(=O)O)cc1 [Form VI, (S)-(2R,3R,11bR)-3-isobutyl-9,10-dimethoxy-2,3,4,6,7,11b-hexahydro-1H-pyrido[2,1-a]isoquinolin-2-yl 2-amino-3-methylbutanoate di(4-methylbenzenesulfonate)]
Form conversion upon exposure to gravimetric vapour sorption analysis [1]: converts to Form V | XRPD pattern following the adsorption/desorption analysis ([1]; di(4-methylbenzenesulfonate)): substantially changed | GVS mass lost ([1]; relative humidity decreased between about 15% and 0% RH): 2.0% | GVS mass lost ([1]; relative humidity decreased between about 90% and 15% RH): 1.2% | GVS mass increase [1, 7]: about 3.1% | GVS mass increase ([1]; relative humidity from about 40% to about 80%): about 0.5% | GVS mass increase ([1]; relative humidity from about 80% to about 90%): about 3.1%

Br [hydrobromide]
Stability to humidity GVS uptake [1]: >3.9%

COc1cc2c(cc1OC)C1CC(OC(=O)C(N)C(C)C)C(CC(C)C)CN1CC2.O=C(O)C(=O)O.O=C(O)C(=O)O (stereo not drawn) [oxalate]
Stability to humidity GVS uptake [1]: 0.8% | Stability to humidity 25° C./92% RH ([3]; 25° C./92% RH): unchanged | Stability to humidity 40° C./75% RH ([3]; 40° C./75% RH): unchanged
